Entries after “also recorded” stand apart in the source; their conditions may differ.
Legend:
[1] = target: T1, TPH1 (Homo sapiens, UniProt P17752); test: Steady-state kinetic study of TPH1 inhibition; format: biochemical
T1 construct: doubly truncated human TPH1 (ΔNH102-ΔCOOH402); made in house; host or cells: E. coli BL21(DE3)
Experimental: Steady-state kinetic studies were performed to explore the mode of inhibition. […] TPH1 and TH activity assays were performed as indicated above in the absence and presence of three different compound concentrations (TPH1: 0–100 μM; TH: 0–25 μM). Product formation was measured either at a fixed concentration of the cofactor BH4 (200 μM) and varying concentrations of L-Trp (0.937–60 μM) or L-Tyr (3.125–50 μM), respectively, or in the presence of varying concentrations of BH4 (TPH1:12.5–400 μM; TH: 7.4–200 μM) and a fixed concentration of amino acid substrates: 30 μM of L-Trp or 50 μM of L-Tyr, respectively. Kinetic parameters were obtained from the Michaelis–Menten model using nonlinear regression fit [drawing 3] where Vmax is the maximum enzyme velocity and Km the Michaelis–Menten constant.
Lineweaver–Burk plots were obtained by plotting the reciprocal of the rate of the enzyme reaction (1/V) versus the reciprocal substrate concentration (1/[S]) in the absence and presence of compounds.

[2] = target: T2, endogenous PAH (Homo sapiens, UniProt P00439); test: Cellular thermal shift assay (CETSA) in HepG2 cells; format: cell-based; conditions: 50 μM compound, 1 h, vs DMSO
T2 construct: increased melting temperatures (ΔTm) of endogenous PAH; endogenous in cells; host or cells: HepG2
T2 sequence (P00439 1-452): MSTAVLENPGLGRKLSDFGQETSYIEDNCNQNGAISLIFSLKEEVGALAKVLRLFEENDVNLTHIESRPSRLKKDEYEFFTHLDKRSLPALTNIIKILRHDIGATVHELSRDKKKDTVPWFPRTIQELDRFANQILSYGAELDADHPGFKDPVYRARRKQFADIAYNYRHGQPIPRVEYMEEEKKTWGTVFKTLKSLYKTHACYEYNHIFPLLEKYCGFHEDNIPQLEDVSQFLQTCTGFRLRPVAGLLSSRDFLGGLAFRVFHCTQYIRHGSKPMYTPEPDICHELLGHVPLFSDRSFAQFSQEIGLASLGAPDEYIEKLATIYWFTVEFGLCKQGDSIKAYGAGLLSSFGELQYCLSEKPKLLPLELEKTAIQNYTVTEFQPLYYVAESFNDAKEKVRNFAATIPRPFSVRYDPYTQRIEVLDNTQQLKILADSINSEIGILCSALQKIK
Experimental: Then, cells were washed, harvested using trypsin, and pelleted by centrifugation. The pellet was washed twice with PBS supplemented with complete EDTA-free protease inhibitor cocktail (Roche) and divided into 14 aliquots of 35 μL containing 800,000 cells. Cells were then frozen in liquid nitrogen and thawed at 25 °C three times, and each aliquot was heated to a defined temperature by applying a gradient between 39 °C and 69 °C in a thermocycler (peQSTAR, PeQlab; 16-well gradient, 54 °C ± 15 °C). After 3 min incubation, aliquots were snap frozen in liquid nitrogen and thawed at 25 °C. Cell lysates were centrifuged at 20,000 g (4 °C) for 20 min. Supernatants were mixed with 5x loading buffer, heated to 70 °C for 5 min and analyzed by Western blotting. Chemoluminescence signals were recorded with a FusionSL, Vilber Lourmat (peQlab) and quantified using FusionCapt Advance FX7 16.01c software. Calculation of ΔTm was conducted using the Boltzmann sigmoidal model in GraphPad prism 7.01.
Cell lysates used for Western blot analysis were prepared as described in the Methods section (Cellular Thermal Shift Assay). […] Chemoluminescence signals were recorded with an FusionSL, Vilber Lourmat (peQlab) and quantified using FusionCapt Advance FX7 16.01c software.

[3] = target: TH (Homo sapiens, UniProt P07101); test: Steady-state kinetic study of TH inhibition; format: biochemical; conditions: for TH Vmax (µmol/(min*mg)): BH4 7.4 – 200 µM / L-Tyr 50 µM
Experimental: Steady-state kinetic studies were performed to explore the mode of inhibition. […] TH: 0-25 μM). […] Kinetic parameters were obtained from the Michaelis-Menten model using nonlinear regression fit [drawing 3] where Vmax is the maximum enzyme velocity and Km the Michaelis-Menten constant. Lineweaver-Burk plots were obtained by plotting the reciprocal of the rate of the enzyme reaction (1/V) versus the reciprocal substrate concentration (1/[S]) in the absence and presence of compounds.

[4] = EG22 5 μM, BH4 12.5–400 μM/L-Trp 30 μM
[5] = EG22 5 μM, L-Trp 0.937–60 μM/BH4 200 μM
[6] = EG22 30 μM, BH4 12.5–400 μM/L-Trp 30 μM
[7] = EG22 30 μM, L-Trp 0.937–60 μM/BH4 200 μM
[8] = EG22 100 μM, BH4 12.5–400 μM/L-Trp 30 μM
[9] = EG22 100 μM, L-Trp 0.937–60 μM/BH4 200 μM

T1 sequence (P17752 102-402): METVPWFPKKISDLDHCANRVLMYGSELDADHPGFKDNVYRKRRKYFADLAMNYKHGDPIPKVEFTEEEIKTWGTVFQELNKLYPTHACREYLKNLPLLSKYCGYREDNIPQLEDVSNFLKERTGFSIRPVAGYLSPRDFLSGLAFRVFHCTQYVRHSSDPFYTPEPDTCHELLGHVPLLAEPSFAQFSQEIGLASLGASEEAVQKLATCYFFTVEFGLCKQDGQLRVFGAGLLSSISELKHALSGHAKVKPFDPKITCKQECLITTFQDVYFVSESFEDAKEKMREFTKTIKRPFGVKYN
Chain of TH (P07101 1-497 isoform P07101-3): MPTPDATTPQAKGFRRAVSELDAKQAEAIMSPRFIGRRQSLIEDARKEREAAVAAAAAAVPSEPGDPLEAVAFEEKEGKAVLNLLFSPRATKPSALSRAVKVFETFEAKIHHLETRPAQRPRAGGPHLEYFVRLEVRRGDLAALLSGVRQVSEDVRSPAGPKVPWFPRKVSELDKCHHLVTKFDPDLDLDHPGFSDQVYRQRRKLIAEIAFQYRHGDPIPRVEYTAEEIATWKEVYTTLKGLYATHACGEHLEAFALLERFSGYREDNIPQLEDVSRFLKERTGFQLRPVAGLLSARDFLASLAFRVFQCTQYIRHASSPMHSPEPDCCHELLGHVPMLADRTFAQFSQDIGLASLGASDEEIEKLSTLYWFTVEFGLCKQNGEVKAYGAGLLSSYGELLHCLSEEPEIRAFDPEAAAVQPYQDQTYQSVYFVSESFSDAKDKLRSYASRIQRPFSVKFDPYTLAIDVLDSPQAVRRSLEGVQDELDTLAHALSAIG

Row | Structure (SMILES) | mode of TPH1 inhibition, varying BH4 and fixed L-Trp ([1]; EG22 0–100 μM) | mode of TPH1 inhibition, varying L-Trp and fixed BH4 ([1]; EG22 0–100 μM) | Km [1, 4] | TPH1 Vmax (μmol/(min·mg)) [1, 4] | Km [1, 5] | TPH1 Vmax (μmol/(min·mg)) [1, 5] | Km [1, 6] | TPH1 Vmax (μmol/(min·mg)) [1, 6] | Km [1, 7] | TPH1 Vmax (μmol/(min·mg)) [1, 7] | Km [1, 8] | TPH1 Vmax (μmol/(min·mg)) [1, 8] | Km [1, 9] | TPH1 Vmax (μmol/(min·mg)) [1, 9] | ΔTm at 50 µM [2] | mode of TH inhibition versus the amino acid substrate ([3]; panobinostat) | mode of TH inhibition toward BH4 ([3]; panobinostat 0–25 μM) | TH Vmax (µmol/(min*mg)) ([3]; panobinostat 2.5 µM) | TH Vmax (µmol/(min*mg)) ([3]; panobinostat 10 µM) | TH Vmax (µmol/(min*mg)) ([3]; panobinostat 25 µM)
1 | O=C(NO)c1ccc(Cl)c(C(=O)Nc2ccc(Cl)cc2)c1 [EG22, 4-Chloro-3-(4-chlorophenylcarbamoyl)-N-hydroxybenzamide] | competitive inhibition; also recorded: mainly competitive | apparent mixed/uncompetitive inhibition; also recorded: mixed noncompetitive/uncompetitive | 22.3 ± 6.8 µM | 3.4 ± 0.2 µmol/min/mg | 11.7 ± 1.1 µM | 4.4 ± 0.2 µmol/min/mg | 53.8 ± 11.2 µM | 3.0 ± 0.2 µmol/min/mg | 7.5 ± 1.3 µM | 3.0 ± 0.2 µmol/min/mg | 76.9 ± 12.5 µM | 2.8 ± 0.2 µmol/min/mg | 5.5 ± 0.8 µM | 2.4 ± 0.1 µmol/min/mg |  |  |  |  |  | 
2 | Cc1[nH]c2ccccc2c1CCNCc1ccc(/C=C/C(=O)NO)cc1 [panobinostat, reference compound] |  |  |  |  |  |  |  |  |  |  |  |  |  |  | 3.7 °C | mixed noncompetitive/uncompetitive | mixed competitive/noncompetitive inhibition; also recorded: mainly competitive | 1.0 ± 0.1 µmol/min/mg | 0.32 ± 0.033 µmol/min/mg | 0.23 ± 0.029 µmol/min/mg
